According to ChEMBL document CHEMBL5058564, “EUbOPEN Chemogenomics Library 2 (Incucyte)” (2022):

How the values were obtained:
Assay type in all cases: toxicity, cell-based
[1] = tested on: HEK-293T; experiment: Incucyte cell viability with HEK293T; details: human, 10 µM, compound concentration 10 uM
[2] = tested on: Fibroblast; experiment: Incucyte cell viability with human fibroblast; details: 10 µM, compound concentration 10 uM
[3] = tested on: U2OS; experiment: Incucyte cell viability with U2OS; details: human, 10 µM, compound concentration 10 uM
[4] = 6 h, replicate number 1, timepoint 6 hours
[5] = 6 h, replicate number 2, timepoint 6 hours
[6] = 12 h, replicate number 1, timepoint 12 hours
[7] = 12 h, replicate number 2, timepoint 12 hours
[8] = 18 h, replicate number 1, timepoint 18 hours
[9] = 18 h, replicate number 2, timepoint 18 hours
[10] = 24 h, replicate number 1, timepoint 24 hours
[11] = 24 h, replicate number 2, timepoint 24 hours
[12] = 0 h, replicate number 2, timepoint 0 hours
[13] = 0 h, replicate number 1, timepoint 0 hours
Note: unitless GR value; below 1 slowed growth and below 0 cell loss.

| Structure (SMILES) | Growth Rate [1, 6] | Growth Rate [1, 7] | Growth Rate [1, 8] | Growth Rate [1, 9] | Growth Rate [1, 10] | Growth Rate [2, 12] | Growth Rate [2, 4] | Growth Rate [2, 5] | Growth Rate [2, 6] | Growth Rate [2, 7] | Growth Rate [2, 9] | Growth Rate [3, 13] | Growth Rate [3, 12] | Growth Rate [3, 4] | Growth Rate [3, 7] | Growth Rate [3, 8] | Growth Rate [3, 9] | Growth Rate [3, 11] | Growth Rate [1, 12] | Growth Rate [2, 13] | other results |
| --- | --- | --- | --- | --- | --- | --- | --- | --- | --- | --- | --- | --- | --- | --- | --- | --- | --- | --- | --- | --- | --- |
| COc1cc(Nc2ncc3c(n2)-c2ccc(Cl)cc2C(c2c(F)cccc2OC)=NC3)ccc1C(=O)O [ALISERTIB] | 0.13 | 0 | 0.39 | 0.33 | 0.38 | 0.68 | -0.97 | -0.09 | -0.79 | -0.17 | -0.13 | -0.14 | 0.41 | 0.83 | 0.54 | 0.19 | 0.45 | 0.65 |  |  | Growth Rate [1, 4]: -0.03; Growth Rate [1, 5]: 0.03; Growth Rate [1, 11]: 0.26; Growth Rate [2, 8]: -0.64; Growth Rate [2, 10]: -0.39; Growth Rate [2, 11]: -0.09; Growth Rate [3, 6]: 0.43; Growth Rate [3, 10]: 0.39 |
| O=c1nc2[nH]c3ccccc3nc-2c(=O)[nH]1 [ALLOXAZINE] | 0.97 |  | 0.81 |  | 0.9 | 0.73 | 0.04 |  |  |  |  | 0.16 | -1 |  |  |  | 0.95 |  | 0.68 | -0.4 |  |
| Cc1[nH]cnc1CN1CCc2c(c3ccccc3n2C)C1=O [ALOSETRON] |  |  |  | 0.96 |  |  |  | 0.22 |  |  | 1 |  |  | 0.03 |  | 0.89 | 0.87 | 0.9 |  | 0.35 | Growth Rate [1, 13]: 0.73; Growth Rate [1, 5]: 0.39 |
| CCCCC[C@H](O)/C=C/[C@H]1[C@H](O)CC(=O)[C@@H]1CCCCCCC(=O)O [ALPROSTADIL] |  | 1 |  | 0.94 |  | 0.17 |  |  |  |  |  | 0.29 | -1 | -0.08 | 0.88 | 0.53 | 0.83 | 0.97 | -0.14 | -0.23 | Growth Rate [1, 13]: -0.15; Growth Rate [1, 4]: 0.92; Growth Rate [3, 5]: 0.85; Growth Rate [3, 6]: 0.28; Growth Rate [3, 10]: 0.85 |
| C[C@H]1CN(C[C@H](Cc2ccccc2)C(=O)NCC(=O)O)CC[C@@]1(C)c1cccc(O)c1 [ALVIMOPAN] | 0.9 | 0.53 | 1 | 0.88 | 0.93 | -0.31 |  |  |  |  |  |  | 0.76 | 0.22 | 0.99 | 0.91 | 0.92 | 0.94 | 0.08 | 0.37 | Growth Rate [1, 13]: 0.62; Growth Rate [1, 5]: 0.52; Growth Rate [1, 11]: 0.85 |
| COC(c1ccccc1)(c1ccccc1)[C@H](Oc1nc(C)cc(C)n1)C(=O)O [AMBRISENTAN] | 0.96 |  | 0.99 |  | 0.97 | 0.74 | 0.41 | 0.53 | 0.97 | 0.6 |  | -0.03 | -1 |  |  |  | 0.96 |  | 0.79 |  |  |
| Cc1nnc2n1-c1sc(CCC(=O)N3CCOCC3)cc1C(c1ccccc1Cl)=NC2 [APAFANT] |  |  |  |  |  | 0.77 | 0.26 | 0.74 | 0.81 | 0.51 | 0.73 |  |  | 0.99 | 0.88 |  | 0.75 | 0.93 |  |  | Growth Rate [1, 13]: 0.99; Growth Rate [2, 11]: 0.95; Growth Rate [3, 5]: 0.76 |
| C[C@@H](O[C@H]1OCCN(Cc2n[nH]c(=O)[nH]2)[C@H]1c1ccc(F)cc1)c1cc(C(F)(F)F)cc(C(F)(F)F)c1 [APREPITANT] | 0.57 | 0.97 | 0.77 | 0.84 | 0.74 |  | 0.71 | -0.37 | 0.39 | -0.12 | 0.17 | -0.52 | -1 | 0.29 | 0.65 | 0.9 | 0.69 | 0.79 |  |  | Growth Rate [1, 4]: 0.91; Growth Rate [1, 5]: 0.66; Growth Rate [2, 8]: 0.18; Growth Rate [2, 10]: 0.28; Growth Rate [2, 11]: 0.5; Growth Rate [3, 5]: 0.58 |
| CC(C)[C@H](C(=O)Nc1ccc(C(=O)NO)cc1)c1ccccc1 [AR-42] | 0.65 | 0.04 | 0.28 |  | 0.18 | 0 |  |  |  |  |  | -0.37 | 0.37 | 0.34 | 0.71 | 0.3 | 0.56 | 0.42 | 0 | 0.24 | Growth Rate [1, 13]: 0.33; Growth Rate [1, 11]: 0.23; Growth Rate [3, 5]: 0.99; Growth Rate [3, 6]: 0.5; Growth Rate [3, 10]: 0.39 |
| CCCCC/C=C\C/C=C\C/C=C\C/C=C\CCCC(=O)NCC(=O)O [ARACHIDONOYL GLYCINE] | 0.8 |  | 0.64 | 0.93 | 0.52 | 0.25 | 0.18 | 0.75 | 0.75 | 0.99 | 0.93 | -0.29 | 0.28 | 0.64 | 0.9 | 0.72 | 0.97 |  | 0.42 | 0.41 | Growth Rate [1, 13]: 0.53; Growth Rate [1, 11]: 0.83; Growth Rate [2, 8]: 0.78; Growth Rate [2, 10]: 0.8; Growth Rate [2, 11]: 0.79; Growth Rate [3, 6]: 0.64; Growth Rate [3, 10]: 0.76 |
| C[C@H]1[C@H](OC(=O)CCC(=O)O)O[C@@H]2O[C@@]3(C)CC[C@H]4[C@H](C)CC[C@@H]1[C@@]24OO3 [ARTESUNATE] | -0.23 | -0.1 | -0.07 | -0.18 | -0.08 | 0.19 |  |  | 0.22 | 0.75 | 0.04 | 0.12 | 0.07 | 0.66 | 0.85 | 0.86 | 0.75 | 0.81 | 0.58 | 0.98 | Growth Rate [1, 4]: 0.56; Growth Rate [1, 11]: -0.16; Growth Rate [2, 8]: -0.31; Growth Rate [2, 10]: -0.42; Growth Rate [2, 11]: -0.06; Growth Rate [3, 5]: 0.72; Growth Rate [3, 10]: 0.98 |
